Here are results for 24 molecules from ChEMBL document CHEMBL5338766, “X-ray Crystal Structure-Guided Discovery of Novel Indole Analogues as Colchicine-Binding Site Tubulin Inhibitors with Immune-Potentiating and Antitumor Effects against Melanoma” (J Med Chem, 2023).

Each structure is given as a SMILES string.

Series [1] has as its system B16-F10. The series is described as follows: Antiproliferative activity against mouse B16-F10 cells assessed as inhibition of cell proliferation incubated for 48 hrs by MTT assay. It is filed as functional, cell-based. Particulars: B16-F10, 48 h. In general terms: Tetrazolium assays rely on reduction of a dye to a coloured formazan, in cell work by metabolically active cells.

For series [2], the system named is HeLa. The series is described as follows: Antiproliferative activity against human HeLa cells assessed as inhibition of cell proliferation incubated for 48 hrs by MTT assay. It counts as functional, cell-based.
The test system of series [3] is HepG2. The series is described as follows: Antiproliferative activity against human HepG2 cells assessed as inhibition of cell proliferation incubated for 48 hrs by MTT assay. It counts as functional, cell-based. The settings on record: HepG2, 48 h.
Series [4] concerns MCF7. Briefly: Antiproliferative activity against human MCF7 cells assessed as inhibition of cell proliferation incubated for 48 hrs by MTT assay. It is filed as functional, cell-based. Particulars: MCF7, 48 h.
Series [5] can be described thus: Toxicity in C57 mouse implanted with mouse B16-F10 cells assessed as pathological changes in heart at 5 mg/kg, ip administered every day for 14 days by H&E staining based microscopic analysis. It counts as organism-based. The settings on record: in vivo, 336 h, time 14 day.
The nature of series [6]: Toxicity in C57 mouse implanted with mouse B16-F10 cells assessed as body weight loss at 5 mg/kg, ip administered every day for 14 days. It is filed as organism-based. The settings on record: in vivo, 336 h, time 14 day.
The nature of series [7]: Toxicity in C57 mouse implanted with mouse B16-F10 cells assessed as pathological changes in liver at 5 mg/kg, ip administered every day for 14 days by H&E staining based microscopic analysis. It counts as organism-based. The settings on record: in vivo, 336 h, time 14 day.
In series [8] the test system is A2780/Taxol. Briefly: Antiproliferative activity against paclitaxel resistant human A2780/Taxol cells assessed as inhibition of cell proliferation incubated for 48 hrs by MTT assay. It is filed as functional, cell-based.
The subject of series [9] is B16-F10. Briefly: Antitumor activity against mouse B16-F10 cells implanted in C57 mouse assessed as tumor growth inhibition at 5 mg/kg, ip administered every day for 14 days relative to control. It is filed as functional. The settings on record: B16-F10, 336 h, time 14 day, read-out: TGI.
A short description of series [10]: Resistance index, ratio of IC50 for antiproliferative activity against paclitaxel resistant human A2780/Taxol cells to IC50 for antiproliferative activity against parental human A2780S cells. It is filed as functional.
The nature of series [11]: Toxicity in C57 mouse implanted with mouse B16-F10 cells assessed as pathological changes in kidney at 5 mg/kg, ip administered every day for 14 days by H&E staining based microscopic analysis. It counts as organism-based. The settings on record: in vivo, 336 h, time 14 day.
For series [12], the system named is A2780S. The series is described as follows: Antiproliferative activity against parental human A2780S cells assessed as inhibition of cell proliferation incubated for 48 hrs by MTT assay. It counts as functional, cell-based.
Series [13] is described as follows: Antiproliferative activity against parental human A549S cells assessed as inhibition of cell proliferation incubated for 48 hrs by MTT assay. It is filed as functional, cell-based.
A short description of series [14]: Antiproliferative activity against paclitaxel resistant human A549/TxR cells assessed as inhibition of cell proliferation incubated for 48 hrs by MTT assay. It is filed as functional, cell-based.
A short description of series [15]: Resistance index, ratio of IC50 for antiproliferative activity against paclitaxel resistant human A549/TxR cells to IC50 for antiproliferative activity against parental human A549S cells. It is filed as functional.
For series [16], the system named is B16-F10. Briefly: Antitumor immunity in C57 mouse implanted with mouse B16-F10 cells assessed as increase in CD3+ CD4+ helper T cells in tumor at 5 mg/kg, ip administered every day for 14 days by flow cytometric analysis (reference value: 0.332%). It counts as functional. The settings on record: time 14 day. For orientation: A flow cytometer gives signals particle by particle.

Series [17] deals with B16-F10. The series is described as follows: Antitumor immunity in C57 mouse implanted with mouse B16-F10 cells assessed as increase in CD3+ CD8+ cytotoxic T cells in tumor at 5 mg/kg, ip administered every day for 14 days by flow cytometric analysis (reference value: 0.340%). The settings on record: time 14 day. It is filed as functional.

Usually IC50 stands for the concentration that gives 50% inhibition. On to `COc1cc(-c2nn(C(=O)OC(C)(C)C)c3ccc(-c4cccc5c4ccn5C)cc23)cc(OC)c1OC`, for which the IC50 turned out to be 492 nM in series [1], 677 nM in series [2], 356 nM in [3] and 350 nM in [4].

For the molecule `COc1cc(-c2n[nH]c3ccc(-c4ccccc4)nc23)cc(OC)c1OC`, the IC50 came out at 683 nM in series [1], 742 nM in series [2], 115 nM in series [3] and 957 nM in series [4].

`CC(=O)O[C@H]1C(=O)[C@@]2(C)[C@H]([C@H](OC(=O)c3ccccc3)[C@]3(O)C[C@H](OC(=O)[C@H](O)[C@@H](NC(=O)c4ccccc4)c4ccccc4)C(C)=C1C3(C)C)[C@]1(OC(C)=O)CO[C@@H]1C[C@@H]2O` [PACLITAXEL]: the Activity result in [5], in series [6], in series [7] and in [11] was “Non-Toxic” in each case. Besides, the half-maximal inhibitory concentration (IC50) in series [8] came out at 2020 nM; in series [12], 2.7 nM; in [13], 24.9 nM; in series [14], 3380 nM. Besides, in series [9], the inhibition in vivo at 5 mg/kg worked out at 70.4%. For the same molecule, the “Ratio IC50” value worked out at 746.5 in series [10] and 135.9 in series [15].

Turning to `COc1cc(-c2n[nH]c3ccc(-c4ccc5c(ccn5C)c4)nc23)cc(OC)c1OC`, the IC50 in [1] amounted to 43 nM; in [2], 48 nM; in series [3], 16 nM; in series [4] it was 35 nM.

For the molecule `COc1cc(-c2n[nH]c3cnc(-c4ccc5c(ccn5C)c4)cc23)cc(OC)c1OC`, the IC50 was found to be 1000 nM in [1], 969 nM in [2], 248 nM in series [3] and 861 nM in series [4].

Take `COc1cc(-c2n[nH]c3cnc(-c4cccc5c4ccn5C)cc23)cc(OC)c1OC`: the IC50 came to 197 nM in [1], 154 nM in series [2], 82 nM in series [3] and 135 nM in [4].

On to `COc1cc2c(c(OC)c1OC)-c1ccc(OC)c(=O)cc1[C@@H](NC(C)=O)CC2` [COLCHICINE], for which the IC50 in series [8] was found to be 670 nM; in series [12], 23.2 nM; in [13] it was 104 nM; in series [4], 22 nM; in series [14], 677 nM.

As to `Cc1c(COc2cc3c(cc2Cl)CN(C(C)(C)C(=O)O)C(c2cccc(C#N)c2)O3)cccc1-c1ccccc1` (centres undefined), the Activity result is on record as “Non-Toxic” in series [5]; “Non-Toxic” in [6]; “Non-Toxic” in series [7]; “Non-Toxic” in [11]; 1.43% in series [16]; 2.27% in series [17]. The inhibition in vivo at 5 mg/kg in series [9] was found to be 48.5%.

On to `COc1cc(-c2nccc3[nH]c(-c4ccc5c(ccn5C)c4)nc23)cc(OC)c1OC`, for which the IC50 in series [1] worked out at 60 nM; in series [2], 71 nM; in [3], 44 nM; in [4] it was 36 nM.

`COc1ccc(-c2ccc3[nH]nc(-c4cc(OC)c(OC)c(OC)c4)c3n2)cc1`: the IC50 came to 271 nM in series [1], 188 nM in series [2], 87 nM in series [3] and 319 nM in series [4].

Turning to `COc1cc(-c2nccc3[nH]c(-c4ccc5ccn(C)c5c4)nc23)cc(OC)c1OC`, the IC50 was determined as 33 nM in [1], 45 nM in series [2], 18 nM in series [3] and 30 nM in series [4].

As for `COc1cc(-c2nn(C(=O)OC(C)(C)C)c3cnc(-c4cccc5c4ccn5C)cc23)cc(OC)c1OC`, the IC50 is 5170 nM in series [1], 5930 nM in series [2], 4700 nM in [3] and 7660 nM in [4].

On to `COc1cc(-c2n[nH]c3ccc(-c4cccc5c4ccn5C)nc23)cc(OC)c1OC`, for which the IC50 stood at 21 nM in [1], 40 nM in series [2], 6 nM in series [3] and 28 nM in series [4].

As for `Cn1ccc2c(-c3nc4c(-c5ccc6c(c5)OCCO6)nccc4[nH]3)cccc21`, the IC50 in [1] is 138 nM; in [2], 92 nM; in series [3], 119 nM; in [4], 213 nM.

As to `CCn1ccc2cc(-c3nc4c(-c5cc(OC)c(OC)c(OC)c5)nccc4[nH]3)ccc21`, the IC50 is 237 nM in series [1], 195 nM in series [2], 130 nM in series [3] and 317 nM in [4].

Regarding `COc1cc(-c2nn(C(=O)OC(C)(C)C)c3ccc(-c4cccc5c4ccn5C)nc23)cc(OC)c1OC`, the IC50 in [1] stood at 386 nM; in series [2], 581 nM; in [3], 210 nM; in series [4] it was 277 nM.

As for `COc1cc(OC)cc(-c2nccc3[nH]c(-c4cccc5c4ccn5C)nc23)c1`, the IC50 in series [1] amounted to 310 nM; in series [2] it was 105 nM; in series [3] it was 238 nM; in series [4], 260 nM.

In the case of `COc1cc(-c2n[nH]c3ccc(-c4cccc5c4ccn5C)cc23)cc(OC)c1OC`, the IC50 in [1] amounted to 66 nM; in [2] it was 48 nM; in [3], 30 nM; in series [4], 45 nM.

Turning to `COc1cc(-c2n[nH]c3ccc(-c4ccc(C)cc4)nc23)cc(OC)c1OC`, the IC50 was found to be 32 nM in series [1], 92 nM in [2], 19 nM in series [3] and 58 nM in series [4].

On to `CCn1ccc2c(-c3nc4c(-c5cc(OC)c(OC)c(OC)c5)nccc4[nH]3)cccc21`, for which the IC50 in [1] is 18 nM; in [2], 29 nM; in series [3] it was 11 nM; in series [4] it was 22 nM.

For `CCn1ccc2ccc(-c3nc4c(-c5cc(OC)c(OC)c(OC)c5)nccc4[nH]3)cc21`, the IC50 in [1] was determined as 631 nM; in [2], 818 nM; in series [3], 509 nM; in series [4], 602 nM.

With `COc1cc(-c2cccc3[nH]c(-c4cccc5c4ccn5C)nc23)cc(OC)c1OC`, the IC50 in series [3] is 15 nM.

Regarding `COc1cc(-c2n[nH]c3ccc(-c4ccc5c(ccn5C)c4)cc23)cc(OC)c1OC`, the half-inhibitory concentration (IC50) is 98 nM in series [1], 173 nM in [2], 49 nM in series [3] and 36 nM in series [4].

Take `COc1ccc(-c2nccc3[nH]c(-c4cccc5c4ccn5C)nc23)cc1OC`: the IC50 in series [1] turned out to be 199 nM; in series [2], 453 nM; in series [3], 256 nM; in [4], 699 nM.
